Test results: EP4635490A1, “PM20D1-DERIVED N-OLEOYL-L-LEUCINE FOR THE TREATMENT AND PREVENTION OF NEURODEGENERATIVE DISEASES” (Consejo Superior De Investigaciones Científicas, priority 2024, dated 2025)

Experiments:
APP/PS1 mice [1] = assay: Novel object recognition test in APP/PS1 mice; assay type: in vivo; details: 25 mg/kg/day p.o. during three months, starting at 15 months-of-age; n=11-15, p=0.0312
Procedure: (§1) • Fig. 1. C18:1-Leu treatment in neuronal cultures. a, Enzyme-linked immunosorbent assays (ELISA) of APP/PS1-derived hippocampal neuronal cultures treated during 24h with 200nM C18:1-Leu. n=5 per group, p=0.0093; one-sided Student's t-test. b, Lactate dehydrogenase (LDH) release viability assay of APP/PS1-derived hippocampal neuronal cultures treated during 16h with 150µM H2O2 and 200nM C18:1-Leu. ROS, reactive oxygen species. n=10 per group, p=0.0048; one-sided Student's t-test. b, AlamarBlue cell viability assay of SH-SY5Y cells treated during 24h with 10µM thapsigargin and 200nM C18:1 -Leu. UPS, unfolded-protein stress. n=5 per group, p=0.0084; one-sided Student's t-test. Single values (experiments) are represented by dots. *p<0.05, and **p<0.01. • Fig. 2. […] AD pathologies and phenotypes in APP/PS1 mice. a, Methoxy-X04 (MX04) IHC amyloid burden (area) quantification. n=8 per group, p=0.0283; one-sided Student's t-test. b, Novel object recognition (NOR) performance of vehicle and C18:1-Leu treated APP/PS1 mice. […]

APP/PS1 mice [2] = assay: Immunohistochemistry of brain sections of treated APP/PS1 mice (amyloid plaques, microglia, neuronal damage); assay type: in vivo
Procedure: • Fig. 1. C18:1-Leu treatment in neuronal cultures. a, Enzyme-linked immunosorbent assays (ELISA) of APP/PS1-derived hippocampal neuronal cultures treated during 24h with 200nM C18:1-Leu. n=5 per group, p=0.0093; one-sided Student's t-test. b, Lactate dehydrogenase (LDH) release viability assay of APP/PS1-derived hippocampal neuronal cultures treated during 16h with 150µM H2O2 and 200nM C18:1-Leu. ROS, reactive oxygen species. n=10 per group, p=0.0048; one-sided Student's t-test. b, AlamarBlue cell viability assay of SH-SY5Y cells treated during 24h with 10µM thapsigargin and 200nM C18:1 -Leu. UPS, unfolded-protein stress. n=5 per group, p=0.0084; one-sided Student's t-test. Single values (experiments) are represented by dots. *p<0.05, and **p<0.01. • Fig. 2. AD pathologies and phenotypes in GMC101 worms. a, Mobility assessment in vehicle and C18:1-Leu treated GMC101 worms during the 3 first days of adulthood. a.u., arbitrary units. n=75-100 worms per time, p=0.0001 and p=0.0152 for day 2 and 3, respectively; one-sided Student's t-test. b, Pumping per minute in vehicle and C18:1-Leu treated GMC101 worms at day 3. n=7 per group, p=0.0162; one-sided t-test. c, Relative amyloid aggregation in vehicle and C18:1-Leu treated GMC101 worms at day 1. n=6 experiments of -1000 worms each, pval=0.0108; one-sided Student's t-test. Single values (animals) are represented by dots. *p<0.05, and ***p<0.001. • Fig. 3. AD pathologies and phenotypes in APP/PS1 mice. a, Methoxy-X04 (MX04) IHC amyloid burden (area) quantification. n=8 per group, p=0.0283; one-sided Student's t-test. b, Novel object recognition (NOR) performance of vehicle and C18:1-Leu treated APP/PS1 mice. C18:1-Leu was provided from 15 to 18 months (m) of age. n=11-15 per group, p=0.0312. Single values (animals) are represented by dots. *p<0.05, **p<0.01, and ***p<0.001. • Fig. 4. Microglia analysis in C18:1-Leu treated APP/PS1 mice. a, Quantification of Ionized calcium-binding adaptor molecule 1 (IBA1, microglia) area within methoxy-X04 (MX04, amyloid plaques) region of interest (ROI). n=6-7 per group, p=0.0051; one-sided Student's t-test. b, Amyloid plaque number quantification. n=8 per group, p=0.0444; one-sided Student's t-test. c, Percentage of amyloid halo (diffuse, toxic) area over plaque dense core. n=8 per group, p=0.0389; one-sided Student's t-test. d, Percentage of the Lysosome-associated protein 1 (LAMP1, neuronal damage) area over to plaque dense core. n=8-9 per group, p=0.0132; one-sided Student's t-test. Single values (animals) are represented by dots. *p<0.05, and **p<0.01. • Fig. 5. C18:1-Leu treatment in microglia cultures. a, Transwell assay of APP/PS1-derived primary microglia treated during 24h with 200nM C18:1-Leu. n=6 per group, p=0.0007; one-sided Student's t-test. b, Amyloid-beta 40 (Aβ40) ELISA assays of APP/PS1-derived primary microglia cultures after 24h of 200nM C18:1-Leu treatment in presence of amyloid-beta (Aβ). n=5 per group, p=0.0201; one-sided Student's t-test. Single values (experiments) are represented by dots. *p<0.05, **p<0.01, and ***p<0.001. • Fig. 6. RNA expression signatures in human samples I. C18:1-Leu score according to PM20D1 haplotype in Alzheimer's disease (AD) and control postmortem brain samples. a, n=387 control and n=511 AD samples, Wilcoxon test, ****p<0.0001 • Fig. 7. RNA expression signatures in human samples II. Correlation between PIG and C18:1-Leu scores in AD samples. n=511 AD samples, Spearman correlation. • Fig. 8. […]

[3] = tested on: APP/PS1-derived primary microglia; assay: Transwell migration assay (Aβ chemotaxis) of primary microglia; assay type: cell-based, mice; details: 200nM C18:1-Leu, 24h, conditioned Aβ media in lower chamber; n=6, p=0.0007
Procedure: as §1

[4] = tested on: APP/PS1-derived hippocampal neuronal cultures; assay: ELISA of Aβ production in primary hippocampal neuronal cultures; assay type: cell-based, mice; details: 200nM C18:1-Leu, 24h vs vehicle; n=5, p=0.0093
Procedure: as §1

GMC101 worms [5] = assay: Mobility phenotyping of GMC101 worms (AD model); assay type: in vivo, C. elegans; details: 200 µM C18:1-Leu, first 3 days of adulthood, vs vehicle
Procedure: as §1

[6] = tested on: APP/PS1-derived hippocampal neuronal cultures; assay: LDH release viability assay under H2O2 (ROS) stress; assay type: cell-based, mice; details: 200nM C18:1-Leu, 16h with 150µM H2O2 (Fig. 1b legend); n=10, p=0.0048
Procedure: as §1

GMC101 worms [7] = assay: Amyloid aggregation in GMC101 worms (western blot); assay type: in vivo, C. elegans; details: 200 µM C18:1-Leu, GMC101 worms at day 1, vs vehicle; p=0.0108
Procedure: as §1

SH-SY5Y cells = assay: AlamarBlue cell viability assay under thapsigargin (unfolded-protein stress); assay type: cell-based, human; details: 200nM C18:1-Leu, 24h with 10µM thapsigargin; n=5, p=0.0084
Procedure: as §1

[8] = tested on: APP/PS1-derived primary microglia; assay: Aβ clearance by primary microglia, Amyloid beta 40 ELISA; assay type: cell-based, mice; details: 200nM C18:1-Leu, 24h in presence of Aβ; n=5, p=0.0201
Procedure: as §1

CCCCCCCC/C=C\CCCCCCCC(=O)N[C@@H](CC(C)C)C(=O)O [C18:1-Leu, N-oleoyl-L-Leucine]
cognitive deficits (novel object recognition test) (APP/PS1 mice [1]): improves
amyloid burden (Methoxy-X04 IHC area) (APP/PS1 mice [2]; 25 mg/kg/day p.o. during three months, starting at 15 months-of-age, n=8, p=0.0283): improves amyloid burden
microglia association with amyloid plaques (relative MX04 area occupied by IBA1) (APP/PS1 mice [2]; C18:1-Leu treated APP/PS1 mice vs vehicle, n=6-7, p=0.0051): increased microglia association
relative size of the diffuse halo of the plaques (APP/PS1 mice [2]; C18:1-Leu treated APP/PS1 mice vs vehicle, n=8, p=0.0389): reduced
number of amyloid plaques (APP/PS1 mice [2]; C18:1-Leu treated APP/PS1 mice vs vehicle, n=8, p=0.0444): reduced
LAMP1 area (neuronal damage) over plaque dense core (APP/PS1 mice [2]; C18:1-Leu treated APP/PS1 mice vs vehicle, n=8-9, p=0.0132): stronger LAMP1 area reduction
Aβ chemotaxis (migrated microglia) [3]: increased Aβ chemotaxis
Aβ production [4]: reduces Aβ production in neuronal cells
AD-like phenotypes - spontaneous and induced mobility (GMC101 worms [5]): significantly improves
neuroprotection against ROS (cell viability, LDH release) [6]: increases neuroprotection against ROS
amyloid pathologies (relative amyloid aggregation) (GMC101 worms [7]): significantly improves
neuroprotection against UPS stress (cell viability, AlamarBlue) (SH-SY5Y cells): increases neuroprotection
Aβ clearance (remaining Aβ40 in media) [8]: increases Aβ clearance
